Data on one compound can be found in patent US20230000842A1, “METHODS OF TREATING CARTILAGE DISORDERS THROUGH INHIBITION OF CLK AND DYRK” (SAMUMED, LLC, priority 2019, published 2023).

Experiment [1] deals with cartilage of ACLT+pMMx rats. Put plainly: Surgery-induced OA model (ACLT+pMMx), cartilage analysis. Particulars: cartilage at day 35. The format is in vivo, rat. The protocol: Male Sprague Dawley (SD) rats (250 g±30 g) (Charles River, Wilmington, Mass.) were used for all animal studies. All animals were treatment naïve at the start of the studies. Procedures were performed during the hours of 8 am-5 pm on weekdays in a sterile hood in the vivarium. Rats were housed in individual ventilated cages (≤3 per cage) under the following conditions:
For Nanostring analysis and qPCR: At 10 weeks postnatal age, 32 rats were subjected to severing of the anterior cruciate, medial collateral and medial meniscotibial ligaments (ACLT+pMMx). 8 rats (male, 10 weeks old) were untreated controls (Sham). Each rat was anesthetized with an isoflurane/O2 mixture until the flexor withdrawal reflex was abolished. The surgeon wore a face mask, hair net, lab coat and shoe covers, and gloves that were disinfected with betadine or chlorhexidine. Surgery tools were sterilized with an autoclave or bead sterilizer and disinfected between animals using a bead sterilizer. After being shaved and disinfected with betadine or chlorhexidine solution, the right knee joint was exposed through a medial para-patellar approach. The medical collateral ligament (MCL) was transected with surgical scalpels. The patella was dislocated laterally, and the knee was placed in full flexion followed by anterior cruciate ligament (ACL) transection with surgical scalpels. The medial meniscus (MM) was also partially transected. After surgery, the joint surface was washed with sterile saline solution, and the capsule was sutured using Vicryl 4-0 (Ethicon, Edinburgh, UK) absorbable suture. The skin was closed with 9 mm auto clips (Mikron precision INC, Gardena Calif.). Buprenorphine (0.5 mg/kg) was administered immediately after the surgery and daily for one-week post-surgery. All the surgery, rats were allowed to move freely in plastic cages until their necropsies. […] At the indicated timepoints, animals were sacrificed using Carbon dioxide (CO2). Cartilage was isolated, flash frozen in liquid Nitrogen and stored at −80° C. until processing for RNA extraction.
At the indicated timepoints, animals were sacrificed using Carbon dioxide (CO2). Cartilage was isolated, flash frozen in liquid Nitrogen and stored at −80° C. until processing for protein extraction.

The next experiment concerns THP1 cells. As to the kind of experiment: Western blot of phospho- and total proteins in THP1 cells stimulated with LPS. Format: cell-based. The method, then: (§1) Cells were plated at 300,000 cells per well in a 6-well plate and following an overnight incubation, treated with DMSO (vehicle control) or indicated compounds and incubated at 37° C. and 5% CO2 for the indicated times. Following treatment, cells were trypsinized and pelleted by centrifugation and washed with PBS. Total protein from the cell pellet was extracted or for fractionation, protein was fractionated into cytoplasmic and nuclear fractions using a Nuclear and Cytoplasmic Extraction Reagents (NE-PER™) kit containing Halt™ protease and phosphatase inhibitors (Thermo Fisher). Protein concentrations were quantified using the Pierce Micro BCA protein assay kit (Thermo Fisher). […] Blots were blocked with non-fat dry milk. Primary antibodies were incubated overnight at 4° C. β-actin and Lamin B1 were used as loading controls (Supplementary Table S2 for primary antibodies). Mouse and rabbit horseradish peroxidase (HRP)-conjugated secondary antibodies were diluted in 5% blocking buffer in TBS-T. Protein-antibody complexes were detected by chemiluminescence using the SuperSignal West Femto Chemiluminescent Substrate (Thermo Fisher) and images were captured with a UVP ChemiDocIt2 camera system (Fisher Scientific, Hampton, N.H.).
(A western blot detects proteins with antibodies after separation by electrophoresis.)

For experiment [2], the system named is primary human mesenchymal stem cells (hMSCs). As to the kind of experiment: Chondrogenesis screening using primary human mesenchymal stem cells. Format: cell-based. Particulars: Homo sapiens, Mesenchymal stem cells. The method, boiled down:
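Derived values are EC50 for 50% chondrogenesis, maximal activity and the dose giving it. These come from nodule area in passage 3–6 primary hMSCs, expressed as fold change over the mean of 3 same-plate DMSO wells, 2–3 replicates per concentration. TGF-β3 served as positive control.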

The subject of a further experiment is FOXO1. Put plainly: Western blot and immunofluorescence of FOXO1 with IL1-β. The format is cell-based, human. The note with it: hMSCs and chondrocytes; in the presence of IL-1β; compared to DMSO. The protocol:
Cells were stained with anti-FOXO1 antibody (red) and DAPI nuclear stain (blue).
as §1

Experiment [3] relates to NF-κB pathway gene expression in THP1 cells. Put plainly: qRT-PCR of NF-κB pathway components in THP1 cells stimulated with LPS. Format: cell-based. The protocol:
Fold change relative to unstimulated control is shown (n=3, Mean±95% CI, *p<0.05, **p<0.01, ***p<0.001, one-way ANOVA).
Total RNA was isolated using a RNAeasy kit (Qiagen) as per the manufacturer's protocol. cDNA was synthesized using the iScript cDNA Synthesis Kit (Bio-Rad). Quantitative real-time PCR was performed using the CFX384 (Bio-Rad) using gene specific SYBR-green or TaqMan™ primers. Relative gene expression was determined by normalizing to housekeeping genes using the ΔΔCt method. Data was collected from at least 3 replicates per assay.
A general note: In qPCR the cycle at which signal appears reflects the starting amount.

Experiment [4] relates to CLK mediated phosphorylation of SRSF4, 5, 6. Put plainly: Western blot of phospho-SRSF in hMSCs and human chondrocytes. The format is cell-based. The note with it: 1 hr, vs DMSO. The protocol: as §1
In a further experiment the test system is SIRT1 (pSer27, pSer47). As to the kind of experiment: Western blot of phospho-SIRT1 with IL1-β. The format is cell-based, human. The note with it: hMSCs and chondrocytes; in the presence of IL-1β; compared to DMSO. The method, then:
as §1

The subject of experiment [5] is nuclear speckles in hMSCs and chondrocytes. Put plainly: Nuclear speckles assay (phospho-SC35 immunofluorescence). The format is cell-based, human. Particulars: 30 nM, 100 nM, 6 hrs, compared to DMSO. The source says:
Cells were stained with phospho-SC35 antibody (green) or DAPI nuclear stain (blue).
After approximately 6 hrs, cells were fixed and stained with a phospho-SC35 antibody (Santa Cruz Biotechnology), followed by an Alexa-Fluor 488 secondary antibody (Thermo Fisher) and DAPI (Thermo Fisher). Cells were imaged at 100× magnification using the EVOS FL (Life Technologies, Carlsbad, Calif.).

[6] abbreviates: single IA injection 0.1 μg, 0.3 μg, 1 μg one-week post ACLT+pMMx, compared with vehicle.

With `CC(C)CC(=O)Nc1cncc(-c2ccc3[nH]nc(-c4nc5c(-c6cccc(F)c6)cncc5[nH]4)c3c2)c1` [compound 123], in experiment [1] (ACLT+pMMx rats, Nanostring), the “number of Wnt pathway genes with decreased expression” value turned out to be 19 genes and the “number of Wnt pathway genes with increased expression” value is given as “at least 8 genes”. Further, in experiment [1] (setting [6]), the “CLK2, DYRK1A, SRSF1, SRSF5, and SRSF6 expression” value is on record as “decreased”; the “phospho-SRSF, SRSF1, AXIN2, TCF7, phospho-SIRT1, phospho-FOXO1, and phospho-STAT3 (Western blot)” value is recorded as “decreased”. In the experiment with THP1 cells (4 hrs, compared to DMSO), the “AKT, JNK1, cJUN, p38/MAPK and TLR4” value is “not inhibited”; the “phospho-STAT3 (S727, Y705), phospho- and total NF-κB (p105/p50), and phospho-FOXO1/3a” value is given as “dose-dependently decreased”. In the experiment with THP1 cells (20 hrs), the “AKT, cJUN, p38/MAPK, and TLR4” value is given as “remained unchanged”; the “NF-κB, STAT3, JNK1 and FOXO1/3a phosphorylation” value is “robustly inhibited”. For the same compound, in the experiment with THP1 cells (THP1 cells + LPS, 10 mins, 30 mins, 1 hr or 2 hrs), the “phospho- or total NF-κB (p105/p50)” value is “no effects”. In addition, in the experiment with THP1 cells (THP1 cells + LPS, 1 hr, 2 hrs, 4 hrs and 20 hrs), the “phospho-STAT3 (Y705)” value was “inhibited”. In addition, in the experiment with THP1 cells (THP1 cells + LPS, 4 hrs and 20 hrs), the “phospho- and total NF-κB” value was “decreased”. For the same compound, in the experiment with THP1 cells (THP1 cells + LPS, any timepoint), the “total STAT3” value is “no effects”. Moreover, in experiment [2] (hMSC chondrogenesis, maximum activity relative to TGF-β3 (10 ng/mL) positive control, read-out: Max. Activity as % TGF-β3 activity), the Emax was 397%. Also, in experiment [2] (read-out: Conc (nM) of 50% TGF-β3 activity), the EC50 turned out to be 30 nM. In addition, in the experiment on FOXO1, the “phosphorylation of FOXO1” value was “dose-dependently inhibited”; the “total FOXO1 protein levels and nuclear localization” value is on record as “increases”. Besides, in experiment [3], the “LPS-stimulated gene expression of NF-κB components (RELA, RELB)” value was “inhibited”; the “NF-κB inhibitors (NFKBIA, NFKBIB, IKKβ, IKKγ) expression” value was “without effects”; the “expression of NF-κB pathway genes (NFKB1, NFKB2, RELA, RELB and BCL3)” value was “inhibited”. Besides, the “CLK mediated phosphorylation of SRSF4, 5, 6” value in experiment [4] was “dose-dependently inhibited”. Also, the “phosphorylation of SIRT1 (pSer27, pSer47)” value in the experiment with SIRT1 (pSer27, pSer47) was “dose-dependently and more potently inhibited”. Also, in experiment [5], the “nuclear speckles (spliceosome modulation)” value was “enlargement of nuclear speckles”.
